Here are results for 59 molecules from US7985755B2, “2,4-diaminoquinazolines for spinal muscular atrophy” (Families of Spinal Muscular Atrophy, priority 2006, dated 2011).

Molecules are shown by their SMILES. Where a name gives a salt, the structure may show the parent alone.

The first test relates to SMN2 promoter. The test can be described thus: SMN2 promoter assay in NSC-34 cells (β-lactamase reporter). The class given is cell-based, mouse. The following applies: Mus musculus, Table 1, SMN2 promoter driving β-lactamase, 12 point dose curve, read-out: Promoter Assay EC50. The source says: All compounds were screened using an in vitro based SMN2 promoter assay. We used NSC-34 cells, a hybrid cell line between mouse spinal cord cells and mouse neuroblastoma cells. NSC-34 cells harbor an expression plasmid containing a 3.4 kb promoter fragment of the SMN2 gene driving β-lactamase expression.
[…] […] CCF2-AM diffuses across the plasma membrane and is converted into an active β-lactamase substrate by cytoplasmic esterase. […] The fold induction is proportional to the extent of β-lactamase produced and in turn proportional to SMN2 promoter activation for a given compound relative to vehicle (DMSO) control. […] These values are used to rank activities of the compounds and derive structure activity relationship.
By EC50 is commonly meant the concentration giving half of the maximal effect. As for `Nc1nc(N)c2c(OCC3CCN(C(=O)c4ccccc4F)CC3)cccc2n1` [Example-013, [4-(2,4-Diaminoquinazolin-5-yloxymethyl)piperidin-1-yl](2-fluorophenyl)methanone], the EC50 is under 1 µM.
Take `Nc1nc(N)c2c(OCC3(S(=O)(=O)c4ccccc4Cl)CCNCC3)cccc2n1` [Example-027, 5-[4-(2-Chlorobenzenesulfonyl)piperidin-4-ylmethoxy]quinazoline-2,4-diamine]: the EC50 was under 1 µM.
As to `Cc1ccccc1C(=O)N1CCC(COc2cccc3nc(N)nc(N)c23)CC1` [Example-019, [4-(2,4-Diaminoquinazolin-5-yloxymethyl)piperidin-1-yl]-o-tolylmethanone], the EC50 was under 1 µM.
Turning to `Nc1nc(N)c2c(OCC3CCN(Cc4ccc(F)c(F)c4)CC3)cccc2n1` [Example-011, 5-[1-(3,4-Difluorobenzyl)piperidin-4-ylmethoxy]quinazoline-2,4-diamine], the EC50 is under 1 µM.
With `Nc1nc(N)c2c(OCC3CCN(C(=O)c4ccc5ccccc5c4)CC3)cccc2n1` [Example-018, [4-(2,4-Diaminoquinazolin-5-yloxymethyl)piperidin-1-yl]naphthalen-2-yl-methanone], the EC50 was under 1 µM.
With `Nc1nc(N)c2c(OCC3CCN(Cc4ccc(C(=O)O)cc4)CC3)cccc2n1` [Example-223, 4-[4-(2,4-Diamino-quinazolin-5-yloxymethyl)-piperidin-1-ylmethyl]-benzoic Acid], the EC50 fell in the range of 1 to 5 µM.
For `Cc1ccc(C(=O)N2CCC(COc3cccc4nc(N)nc(N)c34)CC2)cc1` [Example-021, [4-(2,4-Diaminoquinazolin-5-yloxymethyl)piperidin-1-yl]-p-tolylmethanone], the EC50 is under 1 µM.
Take `Cc1cccc(S(=O)(=O)N2CCC(COc3cccc4nc(N)nc(N)c34)CC2)c1` [Example-032, 5-[1-(Toluene-3-sulfonyl)piperidin-4-ylmethoxy]quinazoline-2,4-diamine]: the EC50 was under 1 µM.
As for `Nc1nc(N)c2c(OCC3(S(=O)(=O)c4ccc(F)c(F)c4)CCNCC3)cccc2n1` [Example-035, 5-[4-(3,4-Difluorobenzenesulfonyl)-piperidin-4-ylmethoxy]quinazoline-2,4-diamine], the half-maximal effective concentration (EC50) was under 1 µM.
On to `Nc1nc(N)c2c(OCC3CCN(C(=O)c4ccc(F)c(F)c4)CC3)cccc2n1` [Example-023, [4-(2,4-Diaminoquinazolin-5-yloxymethyl)piperidin-1-yl]-(3,4-difluorophenyl)methanone], for which the EC50 was under 1 µM.

The test is the same for the next values; noted with them: Mus musculus, Table 4, SMN2 promoter driving β-lactamase, read-out: Promoter Assay EC50 for 2391.003C(P).
As to `Cc1cccc(CN2CCN(c3cccc4nc(N)nc(N)c34)CC2)c1F` [Example-183, 5-[4-(2-Fluoro-3-methyl-benzyl)-piperazin-1-yl]-quinazoline-2,4-diamine], the EC50 was under 1 µM.
Take `CC(C)(C)OC(=O)N1CCN(c2cccc3nc(N)nc(N)c23)CC1` [Examplc-219, 4-(2,4-Diaminoquinazolin-5-yl)piperazine-1-carboxylic acid tert-butyl ester]: the 50% effective concentration (EC50) lay within 1 to 5 µM.
With `Nc1nc(N)c2c(N3CCN(Cc4ccccc4F)CC3)cccc2n1` [Example-176, 5-[4-(2-Fluoro-benzyl)-piperazin-1-yl]-quinazoline-2,4-diamine], the concentration giving a half-maximal response (EC50) lay in the range of 1 to 5 µM.
The same measure, in the same setting: with `Nc1nc(N)c2c(N3CCN(Cc4ccc5ccccc5c4)CC3)cccc2n1` [Example-204, 5-(4-Naphthalen-2-ylmethyl-piperazin-1-yl)-quinazoline-2,4-diamine hydrochloride] the figure was 1 to 5 µM.

Staying with this test, now noted: Mus musculus, Table 6, SMN2 promoter driving β-lactamase, read-out: Promoter Assay EC50.
Take `CC1CC(COc2cccc3nc(N)nc(N)c23)CC(C)N1Cc1ccccc1F` (centres unmarked) [Example-226, 5-[1-(2-Fluoro-benzyl)-2,6-dimethyl-piperidin-4-ylmethoxy]-quinazoline-2,4-diamine]: the half-maximal effective concentration (EC50) is under 1 µM.

The same test, now with this note: Table 1, SMN2 promoter driving β-lactamase, 12 point dose curve, read-out: Promoter Assay EC50.
As for `Cc1noc(C)c1CN1CCC(COc2cccc3nc(N)nc(N)c23)CC1` [Example-091], the EC50 is under 1 µM.
Turning to `Nc1nc(N)c2c(OCC3CCN(S(=O)(=O)c4cccc(Cl)c4Cl)CC3)cccc2n1` [Example-078], the EC50 was under 1 µM.
In the case of `Nc1nc(N)c2c(OCC3CCN(Cc4ccc(C(F)(F)F)cc4)CC3)cccc2n1` [Example-123], the 50% effective concentration (EC50) was under 1 µM.
`Nc1nc(N)c2c(OCC3CCN(C(=O)c4cc(F)ccc4F)CC3)cccc2n1` [Example-052]: the EC50 is under 1 µM.
Take `COc1cc(CN2CCC(COc3cccc4nc(N)nc(N)c34)CC2)cc(OC)c1` [Example-133]: the half-maximal effective concentration (EC50) was under 1 µM.
For `Nc1nc(N)c2c(OCC3CCN(CC4COc5ccccc5O4)CC3)cccc2n1` (centres unmarked) [Example-096], the EC50 was under 1 µM.
For the molecule `Nc1nc(N)c2c(OCC3CCN(Cc4cccs4)CC3)cccc2n1` [Example-135], the EC50 was under 1 µM.
The same measure, in the same setting: the result for `Nc1nc(N)c2c(OCC3CCN(C(=O)c4ccccc4OC(F)(F)F)CC3)cccc2n1` [Example-061] reads under 1 µM; that for `Cc1ccccc1S(=O)(=O)N1CCC(COc2cccc3nc(N)nc(N)c23)CC1` [Example-031], under 1 µM; that for `Cc1ccc(S(=O)(=O)N2CCC(COc3cccc4nc(N)nc(N)c34)CC2)cc1` [Example-033], under 1 µM.
With `Nc1nc(N)c2c(OCC3CCN(C(=O)c4cccs4)CC3)cccc2n1` [Example-055], the EC50 was under 1 µM.
Regarding `CS(=O)(=O)c1ccc(S(=O)(=O)N2CCC(COc3cccc4nc(N)nc(N)c34)CC2)cc1` [Example-086], the EC50 is under 1 µM.
As to `Nc1nc(N)c2c(OCC3CCN(S(=O)(=O)c4ccc(F)cc4)CC3)cccc2n1` [Example-111], the EC50 was under 1 µM.
On the same count and under the same terms, the result for `Nc1nc(N)c2c(OCC3CCN(C(=O)CSc4ccccc4)CC3)cccc2n1` [Example-070] reads under 1 µM; that for `Nc1nc(N)c2c(OCC3CCN(S(=O)(=O)c4ccc(C(F)(F)F)cc4)CC3)cccc2n1` [Example-082], under 1 µM.
For `CS(=O)(=O)c1ccc(CN2CCC(COc3cccc4nc(N)nc(N)c34)CC2)cc1` [Example-047], the EC50 was under 1 µM.
With `Nc1nc(N)c2c(OCC3CCN(S(=O)(=O)c4cccs4)CC3)cccc2n1` [Example-075], the EC50 is under 1 µM.
Turning to `Cn1ccnc1CN1CCC(COc2cccc3nc(N)nc(N)c23)CC1` [Example-152], the EC50 was 1 to 5 µM.
Still for that read-out and setting: with `Nc1nc(N)c2c(OCC3CCN(S(=O)(=O)c4ccc(Cl)c(Cl)c4)CC3)cccc2n1` [Example-088] the figure was under 1 µM; with `Nc1nc(N)c2c(OCC3CCN(Cc4ccc(F)cc4)CC3)cccc2n1` [Example-149], under 1 µM.
Regarding `Nc1nc(N)c2c(OCC3CCN(C(=O)c4ccc(C(F)(F)F)nc4)CC3)cccc2n1` [Example-071], the EC50 was under 1 µM.
The same measure, in the same setting: with `COc1ccc(CN2CCC(COc3cccc4nc(N)nc(N)c34)CC2)cc1F` [Example-122] the figure was under 1 µM.
Still for that read-out and setting: the result for `COc1cccc(CN2CCC(COc3cccc4nc(N)nc(N)c34)CC2)c1` [Example-114] reads under 1 µM.
In the case of `Nc1nc(N)c2c(OCC3CCN(S(=O)(=O)c4ccc(Cl)cc4)CC3)cccc2n1` [Example-028], the 50% effective concentration (EC50) was under 1 µM.
As to `Nc1nc(N)c2c(OCC3CCN(Cc4cccc(OC(F)(F)F)c4)CC3)cccc2n1` [Example-103], the EC50 is under 1 µM.
On to `Nc1nc(N)c2c(OCC3CCN(Cc4ccsc4)CC3)cccc2n1` [Example-145], for which the EC50 is under 1 µM.
The same measure, in the same setting: with `Nc1nc(N)c2c(OCC3CCN(Cc4cccc(C(F)(F)F)c4)CC3)cccc2n1` [Example-130] the figure was under 1 µM.
Regarding `Nc1nc(N)c2c(OCC3CCN(C(=O)c4ccc(F)cc4)CC3)cccc2n1` [Example-062], the EC50 was under 1 µM.
Regarding `CS(=O)(=O)N1CCC(COc2cccc3nc(N)nc(N)c23)CC1` [Example-072], the EC50 was under 1 µM.
In the case of `Nc1nc(N)c2c(OCC3CCN(Cc4cc(F)cc(F)c4)CC3)cccc2n1` [Example-137], the EC50 is under 1 µM.
Same read-out and setting: the result for `CC1CCC(C(=O)N2CCC(COc3cccc4nc(N)nc(N)c34)CC2)CC1` (centres unmarked) [Example-049] reads under 1 µM; that for `Nc1nc(N)c2c(OCC3CCN(Cc4ccc(OC(F)(F)F)cc4)CC3)cccc2n1` [Example-102], under 1 µM.
For the molecule `CC(C)(C)c1ccc(S(=O)(=O)N2CCC(COc3cccc4nc(N)nc(N)c34)CC2)cc1` [Example-073], the EC50 was under 1 µM.
On to `Nc1nc(N)c2c(OCC3CCN(Cc4cccc5ccccc45)CC3)cccc2n1` [Example-005], for which the EC50 was under 1 µM.
The same measure, in the same setting: the result for `CC(C)(C)c1ccc(CN2CCC(COc3cccc4nc(N)nc(N)c34)CC2)cc1` [Example-129] reads under 1 µM; that for `Nc1nc(N)c2c(OCC3CCN(Cc4ccccn4)CC3)cccc2n1` [Example-118], under 1 µM; that for `COc1ccc(Cl)cc1S(=O)(=O)N1CCC(COc2cccc3nc(N)nc(N)c23)CC1` [Example-080], under 1 µM.
`Nc1nc(N)c2c(OCC3CCN(C(=O)c4ccccc4I)CC3)cccc2n1` [Example-041]: the half-maximal effective concentration (EC50) was under 1 µM.
For the molecule `Nc1nc(N)c2c(OCC3CCN(S(=O)(=O)c4cccc(F)c4)CC3)cccc2n1` [Example-077], the EC50 was under 1 µM.
`CC(C)(C)C(=O)N1CCC(COc2cccc3nc(N)nc(N)c23)CC1` [Example-048]: the EC50 is under 1 µM.
As to `Nc1nc(N)c2c(OCC3CCN(Cc4cc(F)c(F)c(F)c4)CC3)cccc2n1` [Example-148], the EC50 was under 1 µM.
As for `COc1ccc(C(=O)N2CCC(COc3cccc4nc(N)nc(N)c34)CC2)cc1` [Example-056], the EC50 was under 1 µM.
Take `COc1ccc(CN2CCC(COc3cccc4nc(N)nc(N)c34)CC2)cc1` [Example-124]: the EC50 is under 1 µM.

Still in this test, the particulars now being: Table 3, SMN2 promoter driving β-lactamase, read-out: Promoter Assay EC50.
In the case of `COC(=O)c1ccc(CN2CCC(COc3cccc4nc(N)nc(N)c34)CC2)cc1` [Example-157], the EC50 is under 1 µM.
